Assay: Stability of tryptophan in fermentation broth with calcium added at molar ratio 0.4
Assay type: physicochemical
Conditions: calcium added at molar ratio of 0.4; increase in pH
Procedure: , respectively, in the same manner as in Examples 1-1 to 1-3 except that a tryptophan-containing fermentation broth having the composition disclosed in Table 2 was used, and the pH was 8.8 and 9.0, respectively. The sample of Comparative Example 2 was prepared by concentrating the tryptophan-containing fermentation broth without adding calcium hydroxide to the tryptophan-containing fermentation broth. […] The fermentation broth to which the slurry was added was concentrated to a degree of concentration of 30% (w/w) in Example 1-4 and a degree of concentration of 35% (w/w) in Example 1-5. It was confirmed that the fermentation broth gelled and lost fluidity when concentrated to a higher degree of concentration. At this time, in the case of the fermentation broth to which a slurry was not added, only a degree of concentration of about 25.5% (w/w) was achieved.

Compound: N[C@@H](Cc1c[nH]c2ccccc12)C(=O)O [tryptophan]
- decomposition of tryptophan: decomposed into tryptamine, indole-acetate, and anthranilic acid

From patent US20230240332A1, “METHOD FOR PREPARING AMINO ACID GRANULE FROM FERMENTATION BROTH” (CJ CHEILJEDANG CORPORATION, priority 2020, published 2023)
